Data as given in patent publication US20120045393A1 (priority 2009, published 2012).
pEC50: −log10 of the molar value. Read-outs that look alike come from different tables or passages of the source. Non-standard residues stand in square brackets, D forms with d. Residues, ends and D or L forms follow the SMILES beside them. *: point of attachment. DOTA = O=C(O)CN1CCN(CC(=O)O)CCN(CC(=O)*)CCN(CC(=O)O)CC1; Bpa = N[C@@H](Cc1ccc(C(=O)c2ccccc2)cc1)C(=O)O; Ala(4-thiazolyl) = N[C@@H](Cc1cscn1)C(=O)O; d2Nal = N[C@H](Cc1ccc2ccccc2c1)C(=O)O; Nicotinoyl = O=C(c1cccnc1)*; azaGly = NNC(=O)O; Sar = CNCC(=O)O

Test system: LHRH binding sites on human ovarian cancer cells (EFO-27)
[1] = EFO-27 cells, competition with [125I-Tyr8]BRU-2477, 90 min
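Further: Cell-associated radioactivity on confluent EFO-27 monolayers in 96-well plates, measured by microplate scintillation counting.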

| Structure (SMILES) | pEC50 | other results |
| --- | --- | --- |
| CC(C)C[C@H](NC(=O)[C@@H](CCCNC(=N)N)NC(=O)[C@H](Cc1ccc(O)cc1)NC(=O)[C@H](CO)NC(=O)[C@H](Cc1c[nH]c2ccccc12)NC(=O)[C@H](Cc1c[nH]cn1)NC(=O)CN(C)C(=O)CN1CCN(CC(=O)O)CCN(CC(=O)O)CCN(CC(=O)O)CC1)C(=O)N[C@@H](Cc1ccc(C(=O)c2ccccc2)cc1)C(=O)N1CCC[C@H]1C(=O)NNC(N)=O [compound 2670] ({DOTA}-[Sar]HWSY[dR]L[Bpa]P[azaGly]-NH2) | – | pEC50 (Table 11: modification of amino acid at position 5, EFO-27 cells): 5.05 |
| N=C(N)NCCC[C@H](NC(=O)[C@H]1Cc2c([nH]c3ccccc23)CN1C(=O)CNC(=O)CN1CCN(CC(=O)O)CCN(CC(=O)O)CCN(CC(=O)O)CC1)C(=O)N[C@@H](Cc1c[nH]c2ccccc12)C(=O)N[C@@H](CO)C(=O)N[C@@H](Cc1c[nH]cn1)C(=O)N[C@H](CCCNC(=N)N)C(=O)N[C@@H](Cc1c[nH]c2ccccc12)C(=O)N[C@@H](Cc1ccc(C(=O)c2ccccc2)cc1)C(=O)N1CCC[C@H]1C(=O)NNC(N)=O [BRU-3068] | – | pEC50 [1]: 6.62 |
| N=C(N)NCCC[C@H](NC(=O)[C@H](CO)NC(=O)[C@H](Cc1c[nH]c2ccccc12)NC(=O)[C@H](CCCNC(=N)N)NC(=O)[C@@H](Cc1ccc2ccccc2c1)NC(=O)CN1CCN(CC(=O)O)CCN(CC(=O)O)CCN(CC(=O)O)CC1)C(=O)N[C@H](Cc1c[nH]c2ccccc12)C(=O)N[C@@H](Cc1c[nH]c2ccccc12)C(=O)N[C@@H](Cc1ccc(C(=O)c2ccccc2)cc1)C(=O)N1CCC[C@H]1C(=O)NNC(N)=O [compound 3001] ({DOTA}-[d2Nal]RWSR[dW]W[Bpa]P[azaGly]-NH2) | 5.48 | – |
| N=C(N)NCCC[C@H](NC(=O)[C@H](N)Cc1ccc2ccccc2c1)C(=O)N[C@@H](Cc1c[nH]c2ccccc12)C(=O)N[C@@H](CO)C(=O)N[C@@H](Cc1c[nH]cn1)C(=O)N[C@H](CCCNC(=N)N)C(=O)N[C@@H](Cc1c[nH]c2ccccc12)C(=O)N[C@@H](Cc1ccc(C(=O)c2ccccc2)cc1)C(=O)N1CCC[C@H]1C(=O)NCCCCNC(=O)CN1CCN(CC(=O)O)CCN(CC(=O)O)CCN(CC(=O)O)CC1 [compound 3042] | 6.70 | – |
| N=C(N)NCCC[C@H](NC(=O)[C@@H](Cc1ccc2ccccc2c1)NC(=O)CN1CCN(CC(=O)O)CCN(CC(=O)O)CCN(CC(=O)O)CC1)C(=O)N[C@@H](Cc1c[nH]c2ccccc12)C(=O)N[C@@H](CO)C(=O)N[C@@H](Cc1c[nH]cn1)C(=O)N[C@H](CCCNC(=N)N)C(=O)N[C@@H](Cc1c[nH]c2ccccc12)C(=O)N[C@@H](Cc1ccc(C(=O)c2ccccc2)cc1)C(=O)N1CCC[C@H]1C(=O)NCC(N)=O [compound 3005] | – | pEC50 [1]: 6.18 |
| N=C(N)NCCC[C@H](NC(=O)[C@@H](Cc1ccc2ccccc2c1)NC(=O)CN1CCN(CC(=O)O)CCN(CC(=O)O)CCN(CC(=O)O)CC1)C(=O)N[C@@H](Cc1c[nH]c2ccccc12)C(=O)N[C@@H](CO)C(=O)N[C@@H](Cc1c[nH]cn1)C(=O)N[C@H](CCCNC(=N)N)C(=O)N[C@@H](Cc1c[nH]c2ccccc12)C(=O)N[C@@H](Cc1ccc(C(=O)c2ccccc2)cc1)C(=O)N1C[C@@H](N)C[C@H]1C(=O)NNC(N)=O [compound 3062] | – | pEC50 [1]: 6.49 |
| N=C(N)NCCC[C@H](NC(=O)[C@@H](Cc1ccc2ccccc2c1)NC(=O)CN1CCN(CC(=O)O)CCN(CC(=O)O)CCN(CC(=O)O)CC1)C(=O)N[C@@H](Cc1c[nH]c2ccccc12)C(=O)N[C@@H](Cc1ccncc1)C(=O)N[C@@H](Cc1c[nH]cn1)C(=O)N[C@H](CCCNC(=N)N)C(=O)N[C@@H](Cc1c[nH]c2ccccc12)C(=O)N[C@@H](Cc1ccc(C(=O)c2ccccc2)cc1)C(=O)N1CCC[C@H]1C(=O)NNC(N)=O [compound 2957] | 6.08 | – |
| CN(CC(=O)N[C@@H](Cc1c[nH]cn1)C(=O)N[C@@H](Cc1c[nH]c2ccccc12)C(=O)N[C@@H](CO)C(=O)N[C@@H](Cc1c[nH]cn1)C(=O)N[C@H](CCCCNC(=O)c1cccnc1)C(=O)N[C@@H](Cc1c[nH]c2ccccc12)C(=O)N[C@@H](Cc1ccc(O)cc1)C(=O)N1CCC[C@H]1C(=O)NNC(N)=O)C(=O)CN1CCN(CC(=O)O)CCN(CC(=O)O)CCN(CC(=O)O)CC1 [compound 2674] ({DOTA}-[Sar]HWSH[dK](Nicotinoyl)WYP[azaGly]-NH2) | 4.65 | – |
| CN(CC(=O)N[C@@H](Cc1c[nH]cn1)C(=O)N[C@@H](Cc1c[nH]c2ccccc12)C(=O)N[C@@H](CO)C(=O)N[C@@H](Cc1c[nH]cn1)C(=O)N[C@H](CCCNC(=N)N)C(=O)N[C@@H](Cc1c[nH]c2ccccc12)C(=O)N[C@@H](Cc1ccc(C(=O)c2ccccc2)cc1)C(=O)N1CCC[C@H]1C(=O)NNC(N)=O)C(=O)c1ccc(CNC(=O)CN2CCN(CC(=O)O)CCN(CC(=O)O)CCN(CC(=O)O)CC2)cc1 [compound 2727] | 6.19 | – |

Continued, in another order:

| pEC50 | Structure (SMILES) | other results |
| --- | --- | --- |
| 6.20 | CN(CC(=O)N[C@@H](Cc1c[nH]cn1)C(=O)N[C@@H](Cc1c[nH]c2ccccc12)C(=O)N[C@@H](CO)C(=O)N[C@@H](Cc1c[nH]cn1)C(=O)N[C@H](CCCNC(=N)N)C(=O)N[C@@H](Cc1c[nH]c2ccccc12)C(=O)N[C@@H](CC1CCCCC1)C(=O)N1CCC[C@H]1C(=O)NNC(N)=O)C(=O)CN1CCN(CC(=O)O)CCN(CC(=O)O)CCN(CC(=O)O)CC1 [BRU-2718] | – |
| 5.34 | CN(CC(=O)N[C@@H](Cc1c[nH]cn1)C(=O)N[C@@H](Cc1c[nH]c2ccccc12)C(=O)N[C@@H](CO)C(=O)N[C@@H](Cc1c[nH]cn1)C(=O)N[C@H](CCCNC(=N)N)C(=O)N[C@@H](Cc1c[nH]c2ccccc12)C(=O)N[C@@H](Cc1c(F)c(F)c(F)c(F)c1F)C(=O)N1CCC[C@H]1C(=O)NNC(N)=O)C(=O)CN1CCN(CC(=O)O)CCN(CC(=O)O)CCN(CC(=O)O)CC1 [BRU-2722] | – |
| 6.24 | CN(C(=O)CN1CCN(CC(=O)O)CCN(CC(=O)O)CCN(CC(=O)O)CC1)[C@H](Cc1ccc2ccccc2c1)C(=O)N[C@@H](CCCNC(=N)N)C(=O)N[C@@H](Cc1c[nH]c2ccccc12)C(=O)N[C@@H](CO)C(=O)N[C@@H](Cc1c[nH]cn1)C(=O)N[C@H](CCCNC(=N)N)C(=O)N[C@@H](Cc1c[nH]c2ccccc12)C(=O)N[C@@H](Cc1ccc(C(=O)c2ccccc2)cc1)C(=O)N1CCC[C@H]1C(=O)NNC(N)=O [BRU-2965] | binding potency, times lower than BRU-2813 (ratio of EC50 to BRU-2813 (EC50=0.33 μM)): ~2 |
| 5.06 | CN(CC(=O)N[C@@H](Cc1c[nH]cn1)C(=O)N[C@@H](Cc1c[nH]c2ccccc12)C(=O)N[C@@H](CO)C(=O)N[C@@H](Cc1c[nH]cn1)C(=O)N[C@H](CCCNC(=N)N)C(=O)N[C@@H](Cc1c[nH]c2ccccc12)C(=O)N[C@H](C(=O)N1CCC[C@H]1C(=O)NNC(N)=O)C1Cc2ccccc2C1)C(=O)CN1CCN(CC(=O)O)CCN(CC(=O)O)CCN(CC(=O)O)CC1 [BRU-2765] | – |
| 6.30 to 6.64 | CNCC(=O)N[C@@H](CCCNC(=N)N)C(=O)N[C@@H](Cc1c[nH]c2ccccc12)C(=O)N[C@@H](CO)C(=O)N[C@@H](Cc1c[nH]cn1)C(=O)N[C@H](CCCNC(=N)N)C(=O)N[C@@H](Cc1c[nH]c2ccccc12)C(=O)N[C@@H](Cc1ccc(C(=O)c2ccccc2)cc1)C(=O)N1CCC[C@H]1C(=O)NCCOCCNC(=O)CN1CCN(CC(=O)O)CCN(CC(=O)O)CCN(CC(=O)O)CC1 [BRU-3039] | – |
| 5.67 | CN(CC(=O)N[C@@H](Cc1c[nH]cn1)C(=O)N[C@@H](Cc1c[nH]c2ccccc12)C(=O)N[C@@H](CO)C(=O)N[C@@H](Cc1c[nH]cn1)C(=O)N[C@H](CCCNC(=N)N)C(=O)N[C@@H](Cc1c[nH]c2ccccc12)C(=O)N[C@@H](Cc1ccc(-c2ccccc2)cc1)C(=O)N1CCC[C@H]1C(=O)NNC(N)=O)C(=O)CN1CCN(CC(=O)O)CCN(CC(=O)O)CCN(CC(=O)O)CC1 [BRU-2625] | – |
| < 4.52 | N=C(N)NCCC[C@H](NC(=O)[C@H](N)Cc1ccc2ccccc2c1)C(=O)N[C@@H](Cc1c[nH]c2ccccc12)C(=O)N[C@@H](CO)C(=O)N[C@@H](Cc1c[nH]cn1)C(=O)N[C@H](CCCNC(=N)N)C(=O)N[C@@H](Cc1c[nH]c2ccccc12)C(=O)N[C@@H](Cc1ccc(C(=O)c2ccccc2)cc1)C(=O)N1CCC[C@H]1C(=O)NCC(=O)NCCCCNC(=O)CN1CCN(CC(=O)O)CCN(CC(=O)O)CCN(CC(=O)O)CC1 [BRU-2990] | – |
| 5.79 | CN(CC(=O)N[C@@H](Cc1c[nH]cn1)C(=O)N[C@@H](Cc1c[nH]c2ccccc12)C(=O)N[C@@H](CO)C(=O)N[C@@H](Cc1c[nH]cn1)C(=O)N[C@H](CCCNC(=N)N)C(=O)N[C@@H](Cc1c[nH]c2ccccc12)C(=O)N[C@@H](Cc1ccc(Oc2ccc(O)cc2)cc1)C(=O)N1CCC[C@H]1C(=O)NNC(N)=O)C(=O)CN1CCN(CC(=O)O)CCN(CC(=O)O)CCN(CC(=O)O)CC1 [BRU-2823] | – |
| 4.89 | CN(CC(=O)N[C@@H](Cc1cscn1)C(=O)N[C@@H](Cc1c[nH]c2ccccc12)C(=O)N[C@@H](CO)C(=O)N[C@@H](Cc1c[nH]cn1)C(=O)N[C@H](CCCNC(=N)N)C(=O)N[C@@H](Cc1c[nH]c2ccccc12)C(=O)N[C@@H](Cc1ccc(C(=O)c2ccccc2)cc1)C(=O)N1CCC[C@H]1C(=O)NNC(N)=O)C(=O)CN1CCN(CC(=O)O)CCN(CC(=O)O)CCN(CC(=O)O)CC1 [BRU-2768] ({DOTA}-[Sar][Ala(4-thiazolyl)]WSH[dR]W[Bpa]P[azaGly]-NH2) | – |
| ≥ 6.70 | CNCC(=O)N[C@@H](CCCNC(=N)N)C(=O)N[C@@H](Cc1c[nH]c2ccccc12)C(=O)N[C@@H](CO)C(=O)N[C@@H](Cc1c[nH]cn1)C(=O)N[C@H](CCCNC(=N)N)C(=O)N[C@@H](Cc1c[nH]c2ccccc12)C(=O)N[C@@H](Cc1ccc(C(=O)c2ccccc2)cc1)C(=O)N1CCC[C@H]1C(=O)N1CCCCC1CNC(=O)CN1CCN(CC(=O)O)CCN(CC(=O)O)CCN(CC(=O)O)CC1 (stereo partly shown) [BRU-3102] | – |
| 5.13 | CN(CC(=O)N[C@@H](Cc1c[nH]cn1)C(=O)N[C@@H](Cc1c[nH]c2ccccc12)C(=O)N[C@@H](CO)C(=O)N[C@@H](Cc1cscn1)C(=O)N[C@H](CCCNC(=N)N)C(=O)N[C@@H](Cc1c[nH]c2ccccc12)C(=O)N[C@@H](Cc1ccc(C(=O)c2ccccc2)cc1)C(=O)N1CCC[C@H]1C(=O)NNC(N)=O)C(=O)CN1CCN(CC(=O)O)CCN(CC(=O)O)CCN(CC(=O)O)CC1 [BRU-2769] ({DOTA}-[Sar]HWS[Ala(4-thiazolyl)][dR]W[Bpa]P[azaGly]-NH2; C-terminus assumed) | – |
| 5.45 | CN(CC(=O)N[C@@H](Cc1c[nH]cn1)C(=O)N[C@@H](Cc1c[nH]c2ccccc12)C(=O)N[C@@H](CO)C(=O)N[C@@H](Cc1c[nH]cn1)C(=O)N[C@H](CCCNC(=N)N)C(=O)N[C@@H](Cc1c[nH]c2ccccc12)C(=O)N[C@@H](Cc1ccc(CN)cc1)C(=O)N1CCC[C@H]1C(=O)NNC(N)=O)C(=O)CN1CCN(CC(=O)O)CCN(CC(=O)O)CCN(CC(=O)O)CC1 [BRU-2760] | – |
